Data on 34 molecules can be found in US20090215783A1, “COMPOSITION FOR INDUCTION OR INHIBITION OF STEM CELL DIFFERENTIATION” (CHOONGWAE PHARMA CORPORATION, priority 2006, published 2009).

The subject of test [1] is human bone marrow derived-mesenchymal stem cells (hBMMSC). Description: Osteogenesis modulating activity assay by test compound alone (ALP activity). The test is classed as cell-based. The following applies: Homo sapiens, 168 h; hBMMSC, 20 μM test compound alone, six to seven days; read-out: Osteogenesis: fold change of ALP activity compared with DMSO control. The procedure:
Cell culture: Human bone marrow derived-mesenchymal stem cells (hBMMSC) were isolated from normal subjects.
Osteogenesis modulating activity assay by test compound alone: hBMMSC were cultivated in the culture medium and cells were seeded into 96-well culture plates and test compounds were dissolved in DMSO and diluted with culture media (final 0.01% DMSO) and added into the media (final concentration of test compound was 20 μM) and cultured in the CO2 incubator (37° C., 5% CO2). Culture medium was changed every two days with fresh one and compound was treated again whenever medium was changed. Six to seven days after incubation, Alkaline phosphatase activity of cell lysates was measured by colorimetry. For the determination of mineralization within the cells, Von Kossa staining or Alizarin Red S assay was performed 10-14 days after incubation.

For test [2], the system named is Mouse embryonic stem (ES) cells, TC1. The test is described as follows: Cardiomyogenesis modulating activity assay (alpha-MHC promoter EGFP, embryoid bodies, FACS/fluorescence microscopy). In kind it is cell-based. As to conditions: embryoid bodies treated for 5 days, FACS. The method, then:
a. Cell culture: Mouse embryonic stem (ES) cells, TC1 derived from 129/S6 strain were cultured on irradiated feeder layer in the culture medium which is high-glucose DMEM (Gibco) BRL, Germany) supplemented with 15% FBS (Hyclone), 0.1 mM beta-mercaptoethanol, […] sodium pyruvate, 1 mM L-glutamine and 1× non-essential amino acids.
b. Establishment of alpha-MHC stably transformed ES cell line: A construct (FIG. 8) containing 1.8 kb promoter sequence of the mouse alpha-MHC gene between EcoRI and SalI sites of pEGFP-1 (Clontech Laboratories, Inc, CA, USA) was linearized at XhoI site, and was introduced into mouse ES cells, TC1, using the Gene Pulser II (BioRad, MA). A selection medium containing G418 was applied for two weeks from 24 hours after electroporation. The selected ES cell clones were harvested and expanded on the feeder cell layer. The green fluorescence-expressing clones when differentiated into cardiomyocytes were used in this experiment.
c. Cardiomyogenesis modulating activity assay: Embryoid body (EB) was formed by hanging drop culture using about a number of 600 (six hundred) ES cells for two days and it was further expanded by culturing in suspension condition on a Petri-dish for another two days. Then each EB was plated on a well of 96 well culture plates. Test compounds were dissolved in DMSO and diluted with culture media (final 0.05% DMSO) and EB was treated with test compound for 5 days. Culture medium was changed every three days after plating. Expression level of EGFP was measured with FACS (Beckman). For FACS analysis, differentiating cells were dissociated with trypsin. For the determination of the extent of differentiation, EB was observed and photographed with an inverted fluorescence microscope (Zeiss, Germany). Number of beating EBs was counted under the microscope and recorded once daily.

`O=C1[C@H](Cc2ccc(F)cc2)N2C(=O)CN(Cc3ccc(F)cc3)N(C(=O)NCc3ccccc3)[C@H]2CN1Cc1cccc(C(F)(F)F)c1` [#70]: the fold induction at 20 µM in test [1] was 1.03. Moreover, in test [2], the “Cardiomyogenesis: fold change of EGFP expression level compared with DMSO control” value (shortened to “Cardiomyogenesis: fold change”) is 0.92 fold.
In the same order, the values of `O=C1[C@H](Cc2ccc(Cl)cc2)N2C(=O)CN(Cc3ccc(F)cc3)N(C(=O)NCc3ccccc3)[C@H]2CN1Cc1cccc(C(F)(F)F)c1` [#72] are 0.84 and 1.76 fold.
Turning to `O=C1[C@H](COCc2ccccc2)N2C(=O)CN(Cc3ccccc3)N(C(=O)NCc3ccccc3)[C@H]2CN1CCc1ccc(Cl)cc1` [#73], the fold induction at 20 µM in test [1] turned out to be 0.64. In test [2], the “Cardiomyogenesis: fold change” value turned out to be 1.57 fold.
In the case of `CC(C)C[C@@H]1C(=O)N(CCc2ccc(Cl)cc2)CC2N1C(=O)CN(Cc1ccccc1)N2C(=O)NCc1ccccc1` (some centres unmarked) [#74], the fold induction at 20 µM in test [1] was found to be 0.54. Further, the “Cardiomyogenesis: fold change” value in test [2] came out at 1.59 fold.
In the same order, the values of `O=C1[C@H](CCc2ccccc2)N2C(=O)CN(Cc3ccccc3)N(C(=O)NCc3ccccc3)[C@H]2CN1CCc1ccc(Cl)cc1` [#75] are 1.16 and 0.50 fold.
For `COc1ccc(C[C@H]2C(=O)N(CCc3ccc(Cl)cc3)C[C@H]3N2C(=O)CN(Cc2ccccc2)N3C(=O)NCc2ccccc2)cc1` [#76], the fold induction at 20 µM in test [1] came out at 1.58. Besides, the “Cardiomyogenesis: fold change” value in test [2] worked out at 1.24 fold.
As to `O=C1[C@H](Cc2ccc(OCc3ccccc3)cc2)N2C(=O)CN(Cc3ccccc3)N(C(=O)NCc3ccccc3)[C@H]2CN1CCc1ccc(Cl)cc1` [#77], the fold induction at 20 µM in test [1] came to 0.98. For the same molecule, the “Cardiomyogenesis: fold change” value in test [2] is given as 1.40 fold.
The matching figures for `Cc1ccc(C[C@H]2C(=O)N(CCc3ccc(Cl)cc3)C[C@H]3N2C(=O)CN(Cc2ccccc2)N3C(=O)NCc2ccccc2)cc1` [#78]: 0.75 and 1.70 fold.
The matching figures for `O=C1[C@H](CC2CCCCC2)N2C(=O)CN(Cc3ccccc3)N(C(=O)NCc3ccccc3)[C@H]2CN1CCc1ccc(Cl)cc1` [#79]: 0.58 and 1.67 fold.
For the molecule `O=C1[C@H](Cc2ccc(F)cc2)N2C(=O)CN(Cc3ccccc3)N(C(=O)NCc3ccccc3)[C@H]2CN1CCc1ccc(Cl)cc1` [#80], the fold induction at 20 µM in test [1] amounted to 0.19. The “Cardiomyogenesis: fold change” value in test [2] stood at 1.49 fold.
For the molecule `O=C1[C@H](Cc2ccc(F)c(F)c2)N2C(=O)CN(Cc3ccccc3)N(C(=O)NCc3ccccc3)C2CN1CCc1ccc(Cl)cc1` (some centres unmarked) [#81], the fold induction at 20 µM in test [1] turned out to be 1.84. The “Cardiomyogenesis: fold change” value in test [2] was 0.81 fold.
Regarding `C=CCN1CC(=O)N2[C@@H](Cc3ccc(OCc4ccccc4)cc3)C(=O)N(Cc3ccc(F)cc3)C[C@@H]2N1C(=O)NCc1ccccc1` [#83], the fold induction at 20 µM in test [1] amounted to 0.36. In test [2], the “Cardiomyogenesis: fold change” value amounted to 2.02 fold.
On to `C=CCN1CC(=O)N2[C@@H](Cc3ccc(C)cc3)C(=O)N(Cc3ccc(F)cc3)C[C@@H]2N1C(=O)NCc1ccccc1` [#84], for which the fold induction at 20 µM in test [1] was 0.69. Further, the “Cardiomyogenesis: fold change” value in test [2] worked out at 1.32 fold.
The matching figures for `C=CCN1CC(=O)N2[C@@H](Cc3ccc(F)cc3)C(=O)N(Cc3ccc(F)cc3)C[C@@H]2N1C(=O)NCc1ccccc1` [#85]: 0.62 and 1.65 fold.
For the molecule `C=CCN1CC(=O)N2[C@@H](CC(C)C)C(=O)N(CCc3ccccc3)C[C@@H]2N1C(=O)NCc1ccccc1` [#86], the fold induction at 20 µM in test [1] amounted to 0.54. Also, the “Cardiomyogenesis: fold change” value in test [2] is reported as 1.34 fold.
In the same order, the values of `C=CCN1CC(=O)N2[C@@H](Cc3ccccc3)C(=O)N(CCc3ccccc3)C[C@@H]2N1C(=O)NCc1ccccc1` [#87] are 0.59 and 0.89 fold.
Turning to `C=CCN1CC(=O)N2C(CC(=O)O)C(=O)N(CCc3ccccc3)C[C@@H]2N1C(=O)NCc1ccccc1` (some centres unmarked) [#88], the fold induction at 20 µM in test [1] was determined as 0.64. Moreover, the “Cardiomyogenesis: fold change” value in test [2] amounted to 1.34 fold.
Take `C=CCN1CC(=O)N2C(CN(CCc3ccccc3)C(=O)[C@@H]2CCC(=O)O)N1C(=O)NCc1ccccc1` (some centres unmarked) [#89]: the fold induction at 20 µM in test [1] amounted to 1.16. Further, the “Cardiomyogenesis: fold change” value in test [2] worked out at 1.26 fold.
The matching figures for `C=CCN1CC(=O)N2[C@@H](c3ccccc3)C(=O)N(CCc3ccccc3)C[C@@H]2N1C(=O)NCc1ccccc1` [#90]: 0.51 and 2.10 fold.
For `C=CCOC(=O)NCCC[C@@H]1C(=O)N(CCc2ccccc2)C[C@H]2N1C(=O)CN(CC=C)N2C(=O)NCc1ccccc1` [#91], the fold induction at 20 µM in test [1] was found to be 1.13. The “Cardiomyogenesis: fold change” value in test [2] came to 2.23 fold.
In the case of `CCCN1CC(=O)N2C(Cc3ccc(O)cc3)C(=O)N(CCC(C)C)CC2N1C(=O)NCc1ccccc1` (centres unmarked) [#92], the fold induction at 20 µM in test [1] came to 0.7. Further, the “Cardiomyogenesis: fold change” value in test [2] is 2.13 fold.
The matching figures for `CCCN1CC(=O)N2C(CN(CCC(C)C)C(=O)[C@@H]2CC(C)C)N1C(=O)NCc1ccccc1` (some centres unmarked) [#93]: 0.63 and 0.57 fold.
As to `CCCN1CC(=O)N2C(CC(=O)O)C(=O)N(CCC(C)C)C[C@H]2N1C(=O)NCc1ccccc1` (some centres unmarked) [#94], the fold induction at 20 µM in test [1] is 0.69. The “Cardiomyogenesis: fold change” value in test [2] stood at 3.02 fold.
Turning to `CCCN1CC(=O)N2C(CN(CCC(C)C)C(=O)[C@@H]2CCC(=O)O)N1C(=O)NCc1ccccc1` (some centres unmarked) [#95], the fold induction at 20 µM in test [1] worked out at 1.19. In addition, in test [2], the “Cardiomyogenesis: fold change” value was determined as 2.22 fold.
For the molecule `CCCCNC(=O)N1[C@H]2CN(CCc3ccc(OC)cc3)C(=O)[C@H](Cc3ccc(O)cc3)N2C(=O)CN1Cc1ccc(C)cc1` [#96], the fold induction at 20 µM in test [1] came to 0.77. In test [2], the “Cardiomyogenesis: fold change” value is reported as 0.54 fold.
In the same order, the values of `CCCCNC(=O)N1[C@H]2CN(CCc3ccc(OC)cc3)C(=O)[C@H](CC(C)C)N2C(=O)CN1Cc1ccc(C)cc1` [#97] are 0.54 and 0.71 fold.
`CCCCNC(=O)N1C2CN(CCc3ccc(OC)cc3)C(=O)[C@H](CC(=O)O)N2C(=O)CN1Cc1ccc(C)cc1` (some centres unmarked) [#98]: the fold induction at 20 µM in test [1] turned out to be 0.26. Further, the “Cardiomyogenesis: fold change” value in test [2] came out at 3.34 fold.
The matching figures for `CN1C(=O)N2[C@@H](Cc3ccc(O)cc3)C(=O)N(CCc3ccc(F)cc3)C[C@@H]2N1C(=O)NCc1ccccc1` [#99]: 0.46 and 1.74 fold.
Turning to `CN1C(=O)N2[C@@H](Cc3ccc(O)cc3)C(=O)N(Cc3cccc4ccccc34)C[C@@H]2N1C(=O)NCc1ccccc1` [#100], in test [1], the fold induction at 20 µM turned out to be 1.11. For the same molecule, the “Cardiomyogenesis: fold change” value in test [2] stood at 1.35 fold.
Turning to `CCC(C)[C@H]1C(=O)N(CC2CCCCC2)C[C@H]2N1C(=O)N(C)N2C(=O)NCc1ccccc1` (some centres unmarked) [#101], in test [1], the fold induction at 20 µM came out at 1.28. Moreover, the “Cardiomyogenesis: fold change” value in test [2] stood at 2.32 fold.
For the molecule `CCCC[C@H]1C(=O)N(CCc2ccc(OC)c(OC)c2)C[C@H]2N1C(=O)N(C)N2C(=O)NCc1ccccc1` [#102], the fold induction at 20 µM in test [1] amounted to 1.61. The “Cardiomyogenesis: fold change” value in test [2] is 1.01 fold.
`CCC(C)[C@H]1C(=O)N(CCC(c2ccccc2)c2ccccc2)C[C@H]2N1C(=O)N(C)N2C(=O)NCc1ccccc1` (some centres unmarked) [#103]: in test [1], the fold induction at 20 µM was 0.98. In addition, the “Cardiomyogenesis: fold change” value in test [2] is 1.98 fold.
The matching figures for `CCC(CC)N1CC2N(C(=O)N(C)N2C(=O)NCc2ccccc2)[C@@H](Cc2ccc(O)cc2)C1=O` (some centres unmarked) [#104]: 1.42 and 0.62 fold.
On to `CC(C)C[C@H]1C(=O)N(C2CCCCC2)C[C@H]2N1C(=O)N(C)N2C(=O)NCc1ccccc1` [#105], for which, in test [1], the fold induction at 20 µM stood at 0.8. Besides, the “Cardiomyogenesis: fold change” value in test [2] was determined as 1.12 fold.
